Series [1] concerns the target Opioid receptors; mu/kappa/delta (Homo sapiens, UniProt P41145+P41143+P35372). The experiment in a line: Evaluated the ability to protect against the irreversible antagonism of morphines effects by beta-FNA in guinea pig ileal longitudinal muscle. Format: functional, tissue-based, Cavia porcellus, Muscle tissue.
Series [2] is described as follows: Compound was tested for ability to protect against the irreversible antagonism of morphine''s effects by beta-FNA in guinea pig ileum at 1 uM concentration. Format: functional.
Series [3] in a line: Compound was tested for ability to protect against the irreversible antagonism of morphine''s effects by beta-FNA in guinea pig ileum at 10 nM concentration, ratio is IC50 after treatment/control IC50. Format: functional.
The nature of series [4]: Compound was evaluated for equilibrium constant, Ke. Format: ADME.
Series [5] in a line: Compound was tested for ability to protect against the irreversible antagonism of morphine''s effects by beta-FNA in guinea pig ileum at 200 nM concentration. Format: functional.
Series [6] in a line: Compound was tested for ability to protect against the irreversible antagonism of morphine''s effects by beta-FNA in guinea pig ileum at 20 nM concentration. Format: functional.
Series [7] can be described thus: Compound was tested for ability to protect against the irreversible antagonism of morphine''s effects by beta-FNA in guinea pig ileum at 2 nM concentration. It counts as functional.
Series [8] in a line: Effect of protecte expressed as morphine IC50 ratio (IC50 after treatment/control IC50) at 200 nM concentration. Format: functional.

One may read the IC50 as the concentration at which inhibition is half-maximal. Low readings indicate higher potency, high ones lower potency. On to `COC(=O)/C=C/C(=O)N[C@@H]1CC[C@@]2(O)C3Cc4ccc(O)c5c4C2(CCN3C)C1O5` (stereo partly specified), for which the IC50 in series [1] was 22 nM. Further, the Ratio in series [2] worked out at 5.2.
`CCOc1ccc2c(c1)C1(C)CCN(CC3CC3)C(C2=O)C1C` (stereo unspecified) [ETHYLKETAZOCINE] came in with an IC50 in series [1] of 0.6 nM. Further, the Ratio in series [3] was 4.6.
Consider `C=CCN1CC[C@]23c4c5ccc(O)c4O[C@H]2[C@@H](O)C=C[C@H]3[C@H]1C5` [NALORPHINE], for which the Ke in series [4] is given as 4.5. This compound also showed an IC50 in series [1] of 28 nM. For the same compound, the Ratio in series [5] was 1.9; in series [2], 1.4.
As for `C=CCN1CC[C@]23c4c5ccc(O)c4O[C@H]2C(=O)CC[C@@]3(O)[C@H]1C5` [NALOXONE], the Ke in series [4] worked out at 1.2. Moreover, the Ratio came out at 1.9 in series [6], 3.4 in series [7] and 1.1 in series [8].
Compound `O=C1CC[C@@]2(O)[C@H]3Cc4ccc(O)c5c4[C@@]2(CCN3CC2CC2)[C@H]1O5` [NALTREXONE] came in with a Ke in series [4] of 0.38. Moreover, the Ratio in series [6] is 1; in series [7], 2.4; in series [8], 1.

The record behind these values is ChEMBL document CHEMBL1122316, “Different receptor sites mediate opioid agonism and antagonism” (J Med Chem, 1983).
